From patent US12473278B2 (Industry—University Cooperation Foundation Hangyang …, priority 2019, dated 2025)
Like-named read-outs stand apart in the source and are kept apart here.

Key:
[1] = target: T1, FLT3 (Homo sapiens (Human), UniProt P36888); assay: Measurement of FLT3 enzyme activity; assay type: biochemical
From the text: Measurement of FLT3 Enzyme Activity
A change in FLT3 enzyme activity by treatment with the benzimidazole derivatives of the following Table 1 according to the present invention was confirmed by IC50.

[2] = test system: FLT3 (ITD); assay: Kinase panel screening; conditions: single dose of 10 μM
From the text: (§1) Measurement of Inhibitory Activity Against Various Protein Kinases

[3] = target: RAFI (Homo sapiens (Human), UniProt P04049); assay: Kinase panel screening; conditions: read-out: % inhibition rate
From the text: as §1

[4] = target: FMS (Homo sapiens (Human), UniProt P07333); assay: Kinase panel screening; assay type: biochemical
[5] = target: T1, FLT3; assay: Kinase panel screening; conditions: FLT3; single dose of 10 μM
From the text: as §1

[6] = target: FGFR3 (Homo sapiens (Human), UniProt P22607); assay: Kinase panel screening; conditions: read-out: Staurosporine IC50; FGFR3; control compound per footnote b
From the text: as §1

[7] = FLT3 enzyme activity, read-out: FLT3 (IC50)
[8] = FLT3 kinase activity, read-out: IC50 against FLT3

T1 sequence (P36888 27-993): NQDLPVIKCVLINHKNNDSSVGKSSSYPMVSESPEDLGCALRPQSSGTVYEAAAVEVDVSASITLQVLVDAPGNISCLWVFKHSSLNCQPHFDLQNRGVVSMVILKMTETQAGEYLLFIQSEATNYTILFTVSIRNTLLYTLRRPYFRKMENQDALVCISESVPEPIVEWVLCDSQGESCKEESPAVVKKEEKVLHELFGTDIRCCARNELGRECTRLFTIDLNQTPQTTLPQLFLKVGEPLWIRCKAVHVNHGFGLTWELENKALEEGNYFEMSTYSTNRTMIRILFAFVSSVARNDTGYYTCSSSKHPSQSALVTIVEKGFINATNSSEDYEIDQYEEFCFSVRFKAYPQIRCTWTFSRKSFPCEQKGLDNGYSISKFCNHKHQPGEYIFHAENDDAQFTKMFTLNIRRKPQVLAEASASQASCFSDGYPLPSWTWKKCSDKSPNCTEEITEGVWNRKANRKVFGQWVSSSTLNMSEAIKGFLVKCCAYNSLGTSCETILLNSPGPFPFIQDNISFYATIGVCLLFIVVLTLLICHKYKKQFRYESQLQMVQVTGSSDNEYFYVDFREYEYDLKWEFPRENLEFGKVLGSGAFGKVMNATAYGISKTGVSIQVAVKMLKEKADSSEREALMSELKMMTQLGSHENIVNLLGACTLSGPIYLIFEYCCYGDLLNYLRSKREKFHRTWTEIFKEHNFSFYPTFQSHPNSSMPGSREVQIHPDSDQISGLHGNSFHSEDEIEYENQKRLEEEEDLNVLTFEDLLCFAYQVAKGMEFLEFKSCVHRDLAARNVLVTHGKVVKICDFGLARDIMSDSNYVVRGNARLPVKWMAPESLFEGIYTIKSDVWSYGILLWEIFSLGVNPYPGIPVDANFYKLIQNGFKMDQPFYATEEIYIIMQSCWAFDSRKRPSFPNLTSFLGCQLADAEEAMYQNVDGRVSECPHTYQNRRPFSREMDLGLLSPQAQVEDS
Chain of FMS (P07333 20-972, species assumed): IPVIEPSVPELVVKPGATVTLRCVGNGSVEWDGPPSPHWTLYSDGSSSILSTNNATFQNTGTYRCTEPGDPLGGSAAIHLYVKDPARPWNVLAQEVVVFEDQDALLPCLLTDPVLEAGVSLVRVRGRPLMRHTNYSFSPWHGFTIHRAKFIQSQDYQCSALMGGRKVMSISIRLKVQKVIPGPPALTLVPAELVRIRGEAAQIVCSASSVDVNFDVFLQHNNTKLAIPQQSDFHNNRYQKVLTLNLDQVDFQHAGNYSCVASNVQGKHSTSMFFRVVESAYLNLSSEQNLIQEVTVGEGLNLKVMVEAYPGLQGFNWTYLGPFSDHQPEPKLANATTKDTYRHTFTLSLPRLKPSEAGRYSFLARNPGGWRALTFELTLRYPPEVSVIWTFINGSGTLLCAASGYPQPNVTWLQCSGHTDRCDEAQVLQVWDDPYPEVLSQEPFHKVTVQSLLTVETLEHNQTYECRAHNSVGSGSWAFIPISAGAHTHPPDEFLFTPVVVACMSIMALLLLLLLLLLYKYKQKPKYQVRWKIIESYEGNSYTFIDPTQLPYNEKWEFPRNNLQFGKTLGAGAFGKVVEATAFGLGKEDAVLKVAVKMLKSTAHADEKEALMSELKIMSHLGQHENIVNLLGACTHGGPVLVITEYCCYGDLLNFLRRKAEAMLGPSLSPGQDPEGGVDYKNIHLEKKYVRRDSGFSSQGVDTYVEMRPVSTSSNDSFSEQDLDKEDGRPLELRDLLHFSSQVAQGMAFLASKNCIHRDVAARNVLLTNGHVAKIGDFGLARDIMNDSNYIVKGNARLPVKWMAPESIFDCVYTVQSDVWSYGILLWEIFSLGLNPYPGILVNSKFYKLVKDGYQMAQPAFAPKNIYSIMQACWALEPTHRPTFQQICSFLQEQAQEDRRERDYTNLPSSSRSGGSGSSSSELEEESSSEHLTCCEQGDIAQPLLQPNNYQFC
Chain of FGFR3 (P22607 23-806, species assumed): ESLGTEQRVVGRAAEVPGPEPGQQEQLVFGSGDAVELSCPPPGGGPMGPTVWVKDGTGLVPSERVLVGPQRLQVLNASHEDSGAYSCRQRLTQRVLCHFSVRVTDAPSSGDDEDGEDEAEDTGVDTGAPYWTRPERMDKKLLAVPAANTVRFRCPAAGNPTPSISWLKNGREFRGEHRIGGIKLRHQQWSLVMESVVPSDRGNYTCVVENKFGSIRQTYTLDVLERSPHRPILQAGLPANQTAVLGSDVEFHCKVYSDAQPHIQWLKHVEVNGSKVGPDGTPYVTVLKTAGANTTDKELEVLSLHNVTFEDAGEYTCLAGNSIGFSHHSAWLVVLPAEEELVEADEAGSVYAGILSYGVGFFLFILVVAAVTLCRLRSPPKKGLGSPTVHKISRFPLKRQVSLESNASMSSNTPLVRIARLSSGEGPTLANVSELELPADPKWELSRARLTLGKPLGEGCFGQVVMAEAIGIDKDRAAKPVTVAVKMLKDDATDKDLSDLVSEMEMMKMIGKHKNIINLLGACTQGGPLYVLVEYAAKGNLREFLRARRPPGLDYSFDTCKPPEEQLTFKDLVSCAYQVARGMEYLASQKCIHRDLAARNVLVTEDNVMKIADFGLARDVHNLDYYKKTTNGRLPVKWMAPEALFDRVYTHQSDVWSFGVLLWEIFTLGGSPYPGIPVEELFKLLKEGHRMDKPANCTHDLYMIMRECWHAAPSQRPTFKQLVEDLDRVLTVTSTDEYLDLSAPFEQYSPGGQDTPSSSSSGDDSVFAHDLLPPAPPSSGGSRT
Chain of RAFI (P04049 whole entry): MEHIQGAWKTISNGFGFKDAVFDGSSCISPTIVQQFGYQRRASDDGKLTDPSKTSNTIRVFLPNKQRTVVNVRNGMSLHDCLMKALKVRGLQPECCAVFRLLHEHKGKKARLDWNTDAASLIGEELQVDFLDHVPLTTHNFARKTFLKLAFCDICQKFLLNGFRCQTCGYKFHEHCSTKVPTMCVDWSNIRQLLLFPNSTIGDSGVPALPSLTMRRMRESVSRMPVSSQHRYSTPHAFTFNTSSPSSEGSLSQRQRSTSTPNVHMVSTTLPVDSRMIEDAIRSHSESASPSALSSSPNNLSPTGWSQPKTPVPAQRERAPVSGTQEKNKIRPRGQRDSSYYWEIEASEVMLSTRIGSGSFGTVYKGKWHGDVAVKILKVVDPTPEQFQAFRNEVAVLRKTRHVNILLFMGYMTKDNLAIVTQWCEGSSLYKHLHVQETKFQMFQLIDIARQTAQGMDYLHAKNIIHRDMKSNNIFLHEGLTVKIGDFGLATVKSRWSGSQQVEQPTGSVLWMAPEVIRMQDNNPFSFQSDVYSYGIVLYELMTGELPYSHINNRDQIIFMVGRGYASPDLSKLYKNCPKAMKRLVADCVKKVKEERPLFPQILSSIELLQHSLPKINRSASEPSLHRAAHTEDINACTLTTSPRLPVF

SMILES	IC50 [1, 7]	further results
Cc1oncc1C(=O)Nc1cccc2[nH]c(-c3cc(N4CCN(C)CC4)cc(C(F)(F)F)c3)nc12 [Compound 6a]	< 3 µM	
Cc1cn(-c2cc(-c3nc4c(NC(=O)c5cnoc5C)cccc4[nH]3)cc(C(F)(F)F)c2)cn1 [Compound 6c, 5-methyl-N-(2-(3-(4-methyl-1H-imidazol-1-yl)-5-(trifluoromethyl)phenyl)-1H-benz[d]imidazol-4-yl)isoxazole-4-carboxamide]	3 to 10 µM	
Cc1oncc1C(=O)Nc1ccc2[nH]c(-c3cc(N4CCN(C)CC4)cc(C(F)(F)F)c3)nc2c1 [Compound 5a, 5-methyl-N-(2-(3-(4-methylpiperazin-1-yl)-5-(trifluoromethyl)phenyl)-1H-benz[d]imidazol-5-yl)isoxazole-4-carboxamide]	< 3 µM	% inhibition rate [2]: 88.48%; inhibition at 10 µM [3]: 8.47%; IC50 [1, 8]: 0.495 µM; inhibition at 10 µM ([4]; read-out: % inhibition rate): 0%; activity against other protein kinases, particularly FMS (in words) ([4]; single dose of 10 μM): did not exhibit significant activity; % inhibition rate [5]: 89.97%
Cc1oncc1C(=O)Nc1ccc2[nH]c(-c3cc(OC4CCN(C)CC4)cc(C(F)(F)F)c3)nc2c1 [Compound 5i, 5-methyl-N-(2-(3-((1-methylpiperidin-4-yl)oxy)-5-(trifluoromethyl)phenyl)-1H-benz[d]imidazol-5-yl)isoxazole-4-carboxamide]	3 to 10 µM	
Cc1oncc1C(=O)Nc1ccc2[nH]c(-c3cc(F)cc(C(F)(F)F)c3)nc2c1 [Compound 5h, N-(2-(3-fluoro-5-(trifluoromethyl)phenyl)-1H-benz[d]imidazol-5-yl)-5-methylisoxazole-4-carboxamide]	> 10 µM	
Cc1oncc1C(=O)Nc1ccc2[nH]c(-c3ccc(N4CCN(C)CC4)c(C(F)(F)F)c3)nc2c1 [Compound 5j, 5-methyl-N-(2-(4-(4-methylpiperazin-1-yl)-3-(trifluoromethyl)phenyl)-1H-benz[d]imidazol-5-yl)isoxazole-4-carboxamide]	> 10 µM	
Cc1cn(-c2cc(-c3nc4cc(NC(=O)c5cnoc5C)ccc4[nH]3)cc(C(F)(F)F)c2)cn1 [Compound 5d, 5-methyl-N-(2-(3-(4-methyl-1H-imidazol-1-yl)-5-(trifluoromethyl)phenyl)-1H-benz[d]imidazol-5-yl)isoxazole-4-carboxamide]	< 3 µM	
O=C(Nc1ccc2[nH]nc(-c3ccncc3)c2c1)[C@@H]1CCN(CC(=O)N2CCN(c3ccc(-c4ncccn4)cc3)CC2)C1 [SCH772984, reference compound]		IC50 [6]: 0.0147 µM

Second part, led by results:

IC50 [1, 7]	SMILES	further results
3 to 10 µM	CCN1CCN(Cc2ccc(-c3nc4cc(NC(=O)c5cnoc5C)ccc4[nH]3)cc2C(F)(F)F)CC1 [Compound 5n, N-(2-(4-((4-ethylpiperazin-1-yl)methyl)-3-(trifluoromethyl)phenyl)-1H-benz[d]imidazol-5-yl)-5-methylisoxazole-4-carboxamide]	
< 3 µM	Cc1oncc1C(=O)Nc1ccc2[nH]c(-c3cc(-n4cncc4C)cc(C(F)(F)F)c3)nc2c1 [Compound 5e, 5-methyl-N-(2-(3-(5-methyl-1H-imidazol-1-yl)-5-(trifluoromethyl)phenyl)-1H-benz[d]imidazol-5-yl)isoxazole-4-carboxamide]	
> 10 µM	Cc1oncc1C(=O)Nc1cccc2[nH]c(-c3ccc(N4CCOCC4)c(C(F)(F)F)c3)nc12 [Compound 6b, 5-methyl-N-(2-(4-morpholino-3-(trifluoromethyl)phenyl)-1H-benz[d]imidazol-4-yl)isoxazole-4-carboxamide]	
3 to 10 µM	CCN1CCN(Cc2cc(-c3nc4cc(NC(=O)c5cnoc5C)ccc4[nH]3)cc(C(F)(F)F)c2)CC1 [Compound 5m, N-(2-(3-((4-ethylpiperazin-1-yl)methyl)-5-(trifluoromethyl)phenyl)-1H-benz[d]imidazol-5-yl)-5-methylisoxazole-4-carboxamide]	
> 10 µM	Cc1oncc1C(=O)Nc1ccc2[nH]c(C3CCCC3)nc2c1 [Compound 5p, N-(2-cyclopentyl-1H-benz[d]imidazol-5-yl)-5-methylisoxazole-4-carboxamide]	
3 to 10 µM	Cc1oncc1C(=O)Nc1ccc2[nH]c(-c3ccc(Cl)c(C(F)(F)F)c3)nc2c1 [Compound 5k, N-(2-(4-chloro-3-(trifluoromethyl)phenyl)-1H-benz[d]imidazol-5-yl)-5-methylisoxazole-4-carboxamide]	
3 to 10 µM	Cc1oncc1C(=O)Nc1ccc2[nH]c(-c3ccc(N4CCOCC4)c(C(F)(F)F)c3)nc2c1 [Compound 5c, 5-methyl-N-(2-(4-morpholino-3-(trifluoromethyl)phenyl)-1H-benz[d]imidazol-5-yl)isoxazole-4-carboxamide]	IC50 [1, 8]: 10 µM
3 to 10 µM	Cc1oncc1C(=O)Nc1ccc2[nH]c(-c3ccc(Cl)cc3)nc2c1 [Compound 5l, N-(2-(4-chlorophenyl)-1H-benz[d]imidazol-5-yl)-5-methylisoxazole-4-carboxamide]	
> 10 µM	Cc1oncc1C(=O)Nc1ccc2[nH]c(-c3cc(-n4ccnc4C)cc(C(F)(F)F)c3)nc2c1 [Compound 5f, 5-methyl-N-(2-(3-(2-methyl-1H-imidazol-1-yl)-5-(trifluoromethyl)phenyl)-1H-benz[d]imidazol-5-yl)isoxazol-4-carboxamide]	
> 10 µM	CC(=O)N1CCC(c2nc3cc(NC(=O)c4cnoc4C)ccc3[nH]2)CC1 [Compound 5o, N-(2-(1-acetylpiperidin-4-yl)-1H-benz[d]imidazol-5-yl)-5-methylisoxazole-4-carboxamide]	
